Experimental data as given in patent publication US20240018120A1, “MAGL INHIBITORS” (H. LUNDBECK A/S, priority 2020, published 2024).

Biological target: T1, MAGL (Homo sapiens, UniProt Q99685)
T1 sequence (Q99685 1-303): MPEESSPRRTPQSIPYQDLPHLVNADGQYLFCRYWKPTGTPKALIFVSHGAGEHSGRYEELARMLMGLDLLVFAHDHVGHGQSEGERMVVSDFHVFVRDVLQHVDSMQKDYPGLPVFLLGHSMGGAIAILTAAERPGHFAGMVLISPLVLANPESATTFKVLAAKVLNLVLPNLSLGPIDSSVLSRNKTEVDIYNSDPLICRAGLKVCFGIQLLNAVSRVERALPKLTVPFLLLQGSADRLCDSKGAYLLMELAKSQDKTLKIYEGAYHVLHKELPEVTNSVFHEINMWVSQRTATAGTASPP
Test: In vitro competitive activity-based protein profiling, PC3 human cell membrane proteomes
Type: biochemical
Set-up: endogenous in cells; host or cells: PC3 human cells (membrane proteome)
Settings: human PC3 membrane proteome
Description: PC3 human cell membrane proteomes (50 μL, 2.0 mg/mL total protein concentration) were preincubated with varying concentrations of inhibitors at 37° C. After 30 min, the ABPP probe JW912-Bodipy (1.0 μL, 50 μM in DMSO) was added and the mixture was incubated for 30 min at room temperature. Reactions were quenched with SDS loading buffer (15 μL-4×) and run on SDS-PAGE. Following gel imaging, serine hydrolase activity was determined by measuring fluorescent intensity of gel bands corresponding to MAGL using ImageJ 1.43u software. Intensities were converted to percent enzyme activity by normalizing to DMSO controls. IC50 values were determined by fitting percent enzyme activities to a non-linear regression, 4-parameter, sigmoidal dose response function in Prism GraphPad.

Row | IC50 [µM] | SMILES
1 | 0.013 | O=C(Nc1cnoc1)[C@H]1CC12CCN(C(=O)OC(C(F)(F)F)C(F)(F)F)CC2 (single isomer, unassigned) [Example 14]
2 | 1 | O=C(Nc1cnoc1)[C@@H]1CC12CCN(C(=O)OC(C(F)(F)F)C(F)(F)F)CC2 (single isomer, unassigned) [Example 15]
3 | 0.016 | O=C(NC(=O)C1CC12CCN(C(=O)OC(C(F)(F)F)C(F)(F)F)CC2)C1CCOCC1 (single isomer, unassigned) [Example 26, 1,1,1,3,3,3-Hexafluoropropan-2-yl (R or S)-1-((tetrahydro-2H-pyran-4-carbonyl)carbamoyl)-6-azaspiro[2.5]octane-6-carboxylate]
4 | 0.056 | O=C(NC(=O)C1CC12CCN(C(=O)OC(C(F)(F)F)C(F)(F)F)CC2)C1CCOCC1 (single isomer, unassigned) [Example 27, 1,1,1,3,3,3-Hexafluoropropan-2-yl (R or S)-1-((tetrahydro-2H-pyran-4-carbonyl)carbamoyl)-6-azaspiro[2.5]octane-6-carboxylate]
5 | 0.25 | CNC(=O)c1ccc(NC(=O)C2CC23CCN(C(=O)OC(C(F)(F)F)C(F)(F)F)CC3)cn1 (single isomer, unassigned) [Example 32, 1,1,1,3,3,3-Hexafluoropropan-2-yl (R or S)-1-((6-(methylcarbamoyl)pyridin-3-yl)carbamoyl)-6-azaspiro[2.5]octane-6-carboxylate]
6 | 0.0022 | CNC(=O)c1ccc(NC(=O)C2CC23CCN(C(=O)OC(C(F)(F)F)C(F)(F)F)CC3)cn1 (single isomer, unassigned) [Example 33, 1,1,1,3,3,3-Hexafluoropropan-2-yl (R or S)-1-((6-(methylcarbamoyl)pyridin-3-yl)carbamoyl)-6-azaspiro[2.5]octane-6-carboxylate]
7 | 0.0051 | COc1ccc(NC(=O)[C@@H]2CC23CCN(C(=O)OC(C(F)(F)F)C(F)(F)F)CC3)cn1 (single isomer, unassigned) [Example 36]
8 | 0.0011 | COc1ccc(NC(=O)[C@H]2CC23CCN(C(=O)OC(C(F)(F)F)C(F)(F)F)CC3)cn1 (single isomer, unassigned) [Example 37]
9 | 0.15 | Cc1ncc(NC(=O)C2CC23CCN(C(=O)OC(C(F)(F)F)C(F)(F)F)CC3)cn1 (single isomer, unassigned) [Example 102, 1,1,1,3,3,3-hexafluoropropan-2-yl (R or S)-1-((2-methylpyrimidin-5-yl)carbamoyl)-6-azaspiro[2.5]octane-6-carboxylate]
10 | 0.0033 | Cc1ncc(NC(=O)C2CC23CCN(C(=O)OC(C(F)(F)F)C(F)(F)F)CC3)cn1 (single isomer, unassigned) [Example 103, 1,1,1,3,3,3-hexafluoropropan-2-yl (R or S)-1-((2-methylpyrimidin-5-yl)carbamoyl)-6-azaspiro[2.5]octane-6-carboxylate]
11 | 0.1 | Cc1ccc(NC(=O)[C@@H]2CC23CCN(C(=O)OC(C(F)(F)F)C(F)(F)F)CC3)nn1 (single isomer, unassigned) [Example 105]

Row | SMILES | IC50 [µM]
12 | CP(C)(=O)c1ccc(NC(=O)C2CC23CCN(C(=O)OC(C(F)(F)F)C(F)(F)F)CC3)cn1 (single isomer, unassigned) [Example 21, 1,1,1,3,3,3-Hexafluoropropan-2-yl (R or S)-1-((6-(dimethylphosphoryl)pyridin-3-yl)carbamoyl)-6-azaspiro[2.5]octane-6-carboxylate] | 0.317
13 | O=C(Nc1ccncc1)C1CC12CCN(C(=O)OC(C(F)(F)F)C(F)(F)F)CC2 (single isomer, unassigned) [Example 23, 1,1,1,3,3,3-Hexafluoropropan-2-yl (R or S)-1-(pyridin-4-ylcarbamoyl)-6-azaspiro[2.5]octane-6-carboxylate] | 0.2
14 | O=C(Nc1ccc(-n2cccn2)nc1)C1CC12CCN(C(=O)OC(C(F)(F)F)C(F)(F)F)CC2 (single isomer, unassigned) [Example 30, 1,1,1,3,3,3-Hexafluoropropan-2-yl (R or S)-1-((6-(1H-pyrazol-1-yl)pyridin-3-yl)carbamoyl)-6-azaspiro[2.5]octane-6-carboxylate] | 0.39
